The target of the assay is T1, TRPC6 (Homo sapiens, UniProt Q9Y210).
T1 construct: expressed in transfected cells; host or cells: HEK293 (inducible expression)
T1 sequence (Q9Y210 1-931): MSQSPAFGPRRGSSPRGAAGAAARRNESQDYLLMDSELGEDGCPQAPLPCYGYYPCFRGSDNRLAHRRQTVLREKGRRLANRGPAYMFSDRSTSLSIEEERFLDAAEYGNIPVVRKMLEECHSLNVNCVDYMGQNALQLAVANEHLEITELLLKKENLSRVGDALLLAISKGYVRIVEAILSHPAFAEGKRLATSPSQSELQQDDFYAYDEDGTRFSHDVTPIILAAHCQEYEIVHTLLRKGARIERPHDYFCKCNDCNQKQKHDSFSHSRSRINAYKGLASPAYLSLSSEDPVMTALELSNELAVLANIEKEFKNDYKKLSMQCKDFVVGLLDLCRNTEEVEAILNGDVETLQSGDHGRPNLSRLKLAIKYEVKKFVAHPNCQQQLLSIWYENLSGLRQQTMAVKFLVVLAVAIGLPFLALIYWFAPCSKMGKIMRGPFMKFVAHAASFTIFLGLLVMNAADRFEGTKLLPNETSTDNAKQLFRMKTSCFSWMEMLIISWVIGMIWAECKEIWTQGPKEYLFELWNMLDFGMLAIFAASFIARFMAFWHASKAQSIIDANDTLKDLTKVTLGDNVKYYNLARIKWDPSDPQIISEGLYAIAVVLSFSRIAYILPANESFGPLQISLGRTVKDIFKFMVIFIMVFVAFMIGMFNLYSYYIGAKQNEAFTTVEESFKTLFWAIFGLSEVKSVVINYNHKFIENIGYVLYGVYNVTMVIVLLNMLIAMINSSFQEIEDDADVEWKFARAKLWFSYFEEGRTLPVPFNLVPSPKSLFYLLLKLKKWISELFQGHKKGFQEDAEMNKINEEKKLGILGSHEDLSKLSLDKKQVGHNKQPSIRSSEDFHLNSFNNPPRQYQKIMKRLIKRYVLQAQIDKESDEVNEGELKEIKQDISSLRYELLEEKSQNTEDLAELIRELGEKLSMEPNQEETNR
The experiment in a line: Whole-cell patch clamp, AlF4- activated TRPC6 HEK293 cells. In kind it is cell-based. The note with it: 10 μM. An excerpt:
Inhibition of TRPC6- and TRPC5-mediated Ca^2+ -influx by norgestimate monitored in fluorometric experiments with cell populations was validated and compared with whole-cell patch clamp recordings of single cells. Channels were indirectly excited with the same stimulus for better comparability of the norgestimate effect. Aluminium tetrafluoride (AIF^4−) applied intracellularly via the patch pipette activates G-proteins by mimicking GTP (Sternweis & Gilman, 1982; Bigay et al., 1987). Subsequently TRPC channels are stimulated and mediate non-specific cationic currents (FIG. 3 A, B) When 10 μM norgestimate were applied to activated TRPC6 channels, 89.9 ±3.1% (n=15) of the current measured at resting membrane potential was blocked. This inhibition was reversible as current amplitude increased after norgestimate wash out (FIG. 3 A).
Effect of 10 μM norgestimate (NG) on whole-cell currents evoked by AlF4^− infusion into induced TRPC6— (A) and TRPC5 HEK 293 (B) cells. Whole cell currents recorded at −70 mV (left panels) and the corresponding current-voltage (I-V) relationships are shown (right panels). […] The curves were obtained during voltage ramps from −100 to +80 mV. (C) Statistical analysis of the norgestimate effect on TRPC5— and TRPC6-mediated currents. 10 μM norgestimate inhibit 25.9±5.7% (n=20) of TRPC5-mediated currents and 89.9±3.1% (n=15) of TRPC6-mediated currents (P<0.001, Wilcoxon test, two-sided).
For orientation: Patch clamp records ionic current or voltage across a cell membrane.

Turning to `C#C[C@]1(OC(C)=O)CC[C@H]2[C@@H]3CCC4=C/C(=N/O)CC[C@@H]4[C@H]3CC[C@@]21CC` [norgestimate, D-17β-acetoxy-B-ethyl-17α ethinyl-gon-4-en-3-one oxime], the “reversibility of TRPC6 current inhibition after wash out” value is reported as “reversible”. Further, under “current at resting membrane potential (-70 mV), n=15”, the TRPC6 current blocked turned out to be 89.9 ±3.1%.

The values are drawn from patent US8455469B2, “Use of norgestimate as a selective inhibitor of TRPC3, TRPC6 and TRPC7 ion channels” (Sanofi, priority 2007, dated 2013).
